Assays:
cryptochrome 1 (Cry1) = test: Cry1 expression over time after forskolin bio-cycle synchronization in WT MEFs (immunoblotting); type: cell-based, mouse
Experimental: (§1) For cell culture, 1 ml of 10% (vol/vol) fetal bovine serum (FBS, Hyclone Co.) was added to 10 ml of Dulbecco's modified Eagle's medium (DMEM), followed by adding 100 μl of 1% (vol/vol) penicillin-streptomycin thereto. Then, NIH3T3 cells, wild-type mouse embryo fibroblasts (WT MEFs), and mouse embryo fibroblasts free from cryptochrome 1 (Cry1) and cryptochrome 2(Cry2) (Cry^DKO MEFs), respectively, were cultured in the above prepared culture medium. For bio-cycle synchronization, fused cells were further cultured for additional three (3) days after adding […] forskolin to the above medium. An extract of cytoplasm and nucleus protoplasm as well as the whole cell fusion were prepared. A chromatin-rich part could be obtained by treating 10-U DNase I (Promega) and 100-U micrococcal nuclease at 30° C. for 30 minutes and from the nucleus protoplasm through extraction using fillets. Each part was analyzed by SDS-PAGE and both of Ponceau S staining and immunoblotting. According to typical immunoblotting orders, amounts of proteins were determined using the above parts. For quantification of the immunoblotting, ImageQuant 5.2 software (Molecular Dynamics) was used. […]

ATR = test: phosphorylation of p53 and Chk1 (proxy marker of ATR) after UV radiation in forskolin-synchronized cells; type: cell-based, mouse; conditions: NIH3T3 cells
Experimental: as §1, with “above medium. For UV radiation, using a germicidal lamp (GE) mainly emitting UV-C beam, UV light was emitted to the fused cells by 5 J/m^2. Then, a fluorescence rate of the incident beam was measured using a UV-C sensor. An extract” for “above medium. An extract”

ATR pathway = ATR pathway markers in mouse liver after cisplatin injection at CT08 or CT20 (immunoblotting); type: in vivo
Experimental: Before sacrificing C57BL/6J male mouse, the animal was placed under an environment where the daytime and nighttime were maintained for 12 hours each […], during 2 weeks. After exposing the mouse to CO2 and putting the animal to death, the liver of the mouse was cut into pieces having a size of less than 2 mm and washed with phosphate buffer saline (PBS), followed by freezing the same in liquid nitrogen. The frozen liver piece was pulverized using a ceramic mortar and pestle under liquid nitrogen to prepare a whole cell fusion. An extract of cytoplasm and nucleus protoplasm as well as the whole cell fusion were prepared. A chromatin-rich part could be obtained by treating 10-U DNase I (Promega) and 100-U micrococcal nuclease at 30° C. for 30 minutes and from the nucleus protoplasm through extraction using fillets. Each part was analyzed by SDS-PAGE and both of Ponceau S staining and immunoblotting. According to typical immunoblotting orders, amounts of proteins were determined using the above parts. For quantification of the immunoblotting, ImageQuant 5.2 software (Molecular Dynamics) was used. Antibodies used in the experiments were as follows: GAPDH, p-Chk1 5345, p53, p-p53 S15 (Cell Signaling Technology), ATR, RPA70 (Replication Protein A), Chk1, Actin (Santa Cruz Biotechnology), Clock, Cry1, Cry2, p-MCM2 5108, Tim (Timeless), Tipin (Bethyl Laboratory), histone H3 (Millipore), Per2 (BD Biosciences) and platinum GpG (Oncolyze). Tim and Cry1, Tim protein complexes were precipitated using protein A/G-coupled sepharose (Sigma) collected beforehand as well as an anti-Tim antibody. In order to detect Cry1 precipitated together with Tim, immunoblotting was implemented. In the present disclosure, CT refers to a time having passed from a time period when the bio-cyclic rhythm was induced. For instance, CT08 means 8 hours after the induction of the bio-cyclic rhythm, and CT20 means 20 hours after the induction of the bio-cyclic rhythm. […]

[1] = i.p. injection; cited from earlier work
WT MEFs cells = test: removal of Platinum-GpG adducts after cisplatin in forskolin-synchronized cells (immunoslot blotting); type: cell-based, mouse; conditions: cisplatin given 12 hours vs 24 hours after forskolin treatment
Experimental: For cell culture, 1 ml of 10% (vol/vol) fetal bovine serum (FBS, Hyclone Co.) was added to 10 ml of Dulbecco's modified Eagle's medium (DMEM), followed by adding 100 μl of 1% (vol/vol) penicillin-streptomycin thereto. Then, NIH3T3 cells, wild-type mouse embryo fibroblasts (WT MEFs), and mouse embryo fibroblasts free from cryptochrome 1 (Cry1) and cryptochrome 2(Cry2) (Cry^DKO MEFs), respectively, were cultured in the above prepared culture medium. For bio-cycle synchronization, fused cells were further cultured for additional three (3) days after adding […] forskolin to the above medium. After separating genomic DNA from MEFs cells using QIAamp DNA Mini kit (Qiagen), […] of genomic DNA was moved to a nitrocellulose membrane by a BioDot SF Microfiltration apparatus (BioRad). The genomic DNA was heated at 80° C. for 2 hours under vacuum to be bound to the nitrocellulose membrane. Using a mono-antibody specifically recognizing Platinum-GpG adducts (Oncolyze), an amount of DNA damaged by cisplatin was relatively measured. Then, it may be identified whether DNA bound to the nitrocellulose membrane is quantified on Gel-doc after staining the DNA with Sybr-gold as a DNA staining reagent.

| SMILES | time of maximum expression of cryptochrome 1 (Cry1) after forskolin treatment (cryptochrome 1 (Cry1)) [h] | time of minimum expression of cryptochrome 1 (Cry1) after forskolin treatment (cryptochrome 1 (Cry1)) [h] | extent of phosphorylation of p53 and Chk1, cell 12 hours after forskolin treatment as compared to cell 24 hours after (ATR) [times] | accumulation of replicated protein A (RPA70) in chromatin (ATR pathway; liver chromatin, after cisplatin injection at CT20) | p-MCM2 signal, mouse at CT20 as compared to the mouse at CT08 (ATR pathway; mouse liver, at 8 hours or later after the cisplatin injection) [times] | extents of expression of p-Chk1 and p-p53 (ATR pathway; mouse liver, cisplatin injected at CT08 and CT20) | time until cisplatin reaches the liver [1] | removal rate of Platinum-GpG (WT MEFs cells) |
| --- | --- | --- | --- | --- | --- | --- | --- | --- |
| C=C[C@@]1(C)CC(=O)[C@]2(O)[C@@]3(C)[C@@H](O)CCC(C)(C)[C@@H]3[C@H](O)[C@H](OC(C)=O)[C@@]2(C)O1 [forskolin] | 12 | 24 | 2 to 3 |  |  |  |  |  |
| N.N.[Cl][Pt][Cl] [cisplatin] |  |  |  | accumulation of replicated protein A was identified in chromatin | ≥ 2 | insignificant | about 2 hours | higher at 12 hours after forskolin treatment |

From patent publication US9884086B2, “Administration method for anticancer drugs” (Dong-A University Research Foundation for Industry—Academy …, priority 2014, dated 2018)
